This note sets out measurements from ChEMBL document CHEMBL1122256, “Novel tetracyclic spiropiperidines. 3. 1-arylspiro[indoline-3,4'-piperidine]s as potential antidepressants” (J Med Chem, 1983).

The test system of experiment [1] is Mus musculus. Nature of the experiment: Inhibition of tetrabenazine ptosis in mice following i.p. administration. The class given is functional. To be noted: ip.
The subject of experiment [2] is Rattus norvegicus. Nature of the experiment: Antidepressant activity measured by potentiation of head twitching induced by 5-HTP in pargyline-pretreated rats after intraperitoneal administered. To be noted: ip. The class given is functional.
Experiment [3] concerns Mus musculus. Nature of the experiment: Antidepressant activity by tetrabenazine ptosis prevention in mice after intraperitoneal administration. To be noted: ip.
Experiment [4] deals with Rattus norvegicus. Kind of experiment: Potentiation of head twitching induced by 5-HTP in pargyline-pretreated rats following i.p. administration. The experiment is classed as functional. As to conditions: ip.
Experiment [5] has as its system Mus musculus. Kind of experiment: Antidepressant activity by tetrabenazine ptosis prevention in mice after oral administration. The experiment is classed as functional.
Experiment [6] deals with Mus musculus. Nature of the experiment: Antidepressant activity by tetrabenazine ptosis prevention in mice after peroral administration. As to conditions: po. The class given is functional.
Experiment [7] has as its system Mus musculus. Nature of the experiment: Antidepressant activity by tetrabenazine ptosis prevention in mice after oral administration.
The test system of experiment [8] is Mus musculus. Kind of experiment: In vivo antidepressant activity measured by yohimbine toxicity potentiation in mouse after intraperitoneal administration. The class given is functional. As to conditions: ip.
For experiment [9], the system named is Mus musculus. Nature of the experiment: In vivo antidepressant activity by tetrabenazine ptosis prevention in mice after intraperitoneal administration. To be noted: ip. The class given is functional.
In experiment [10] the test system is Rattus norvegicus. Kind of experiment: In vivo antidepressant activity measured by potentiation of head twitching induced by 5-HTP in pargyline-pretreated rats after intraperitoneal administration. The class given is functional. To be noted: ip.
In experiment [11] the test system is Mus musculus. Kind of experiment: In vivo antidepressant activity by tetrabenazine ptosis prevention in mice after oral administration. The experiment is classed as functional.
For experiment [12], the system named is Rattus norvegicus. Kind of experiment: In vivo antidepressant activity against muricide in rat after intraperitoneal administration. The class given is functional. As to conditions: ip.
Experiment [13] relates to Mus musculus. Kind of experiment: Antidepressant activity by tetrabenazine ptosis prevention in mice after intraperitoneal administration; d = All animals died after tetrabenazine dosing. The class given is functional, organism-based.
Experiment [14] relates to Mus musculus. Nature of the experiment: Antidepressant activity by tetrabenazine ptosis prevention in mouse after oral administration. The class given is functional.
The species entered for experiment [15] is Rattus norvegicus. Kind of experiment: In vitro inhibition of neuronal uptake against dopamine in rat striatum. The experiment is classed as functional.
Experiment [16] is filed under the species Rattus norvegicus. Nature of the experiment: In vitro inhibition of neuronal uptake against serotonin in rat whole brain. The experiment is classed as functional.
Experiment [17] has as its system Mus musculus. Kind of experiment: In vivo antidepressant activity by tetrabenazine ptosis prevention in mouse after intraperitoneal administration. As to conditions: ip.
The species entered for experiment [18] is Rattus norvegicus. Nature of the experiment: In vitro inhibition of neuronal uptake against norepinephrine in rat whole brain. The class given is functional.
Experiment [19] concerns Monoamine oxidase (Rattus norvegicus). Kind of experiment: In vitro inhibition of MAO against mitochondrial preparation in rat whole brain.

Each structure is given as a SMILES string.

The term ED50 denotes the dose that gives a 50% effect, or the effect in half of the subjects. Regarding `Br.CN1CCC2(CC1)CN(c1ccc(F)cc1)c1ccccc12`, the figures for the ED50 with Mus musculus [1], in the experiment on Rattus norvegicus [2] and with Mus musculus [3] were over 20 mg/kg, over 10 mg/kg and over 20 mg/kg, respectively.

Consider `CN1CCC2(CC1)CN(c1ccc(Cl)cc1)c1ccccc12`, for which the ED50 was over 20 mg/kg in the experiment on Mus musculus [1] and over 10 mg/kg with Rattus norvegicus [4].

With `Fc1ccccc1N1CC2(CCNCC2)c2ccc(Cl)cc21.O=C(O)/C=C\C(=O)O`, the ED50 in the experiment on Mus musculus [1] was over 8 mg/kg; in the experiment on Rattus norvegicus [4], over 10 mg/kg.

Turning to `CN1CCC2(CC1)CN(c1ccccc1Cl)c1ccccc12.O=C(O)/C=C\C(=O)O`, the ED50 with Mus musculus [5] was 3.2 mg/kg; in the experiment with Rattus norvegicus [4], over 10 mg/kg.

As to `CN1CCC2(CC1)CN(c1ccccc1)c1ccccc12`, the median effective dose (ED50) in the experiment on Mus musculus [1] is over 20 mg/kg; in the experiment with Rattus norvegicus [4], over 10 mg/kg.

Consider `CN1CCC2(CC1)CN(c1ccccc1[N+](=O)[O-])c1ccccc12`, for which the ED50 in the experiment on Mus musculus [6] was 8.4 mg/kg; in the experiment on Mus musculus [3], 4 mg/kg; with Rattus norvegicus [4], over 10 mg/kg.

For the compound `Cl.Nc1ccccc1N1CC2(CCNCC2)c2ccccc21`, the ED50 in the experiment on Mus musculus [1] is over 20 mg/kg; with Rattus norvegicus [4], over 10 mg/kg.

Regarding `CN1CCC2(CC1)CN(c1ccccc1F)c1cc(Cl)ccc12.O=C(O)/C=C\C(=O)O`, the ED50 in the experiment on Mus musculus [1] is 11 mg/kg; in the experiment on Rattus norvegicus [4], over 10 mg/kg.

Turning to `CN1CCC2(CC1)CN(c1ccc(C(F)(F)F)cc1)c1ccccc12`, the ED50 in the experiment with Mus musculus [1] was over 20 mg/kg; in the experiment with Mus musculus [3], over 20 mg/kg; with Rattus norvegicus [4], 7.8 mg/kg.

With `CN1CCC2(CC1)CN(c1ccccc1N)c1cc(Cl)ccc12.Cl.Cl`, the values for the ED50 in the experiment with Mus musculus [1] and in the experiment with Rattus norvegicus [4] were over 20 mg/kg and over 10 mg/kg, respectively.

Consider `CN1CCC2(CC1)CN(c1ccccc1F)c1ccccc12.O=C(O)/C=C\C(=O)O`, for which the ED50 was 15.2 mg/kg with Mus musculus [1] and over 10 mg/kg in the experiment on Rattus norvegicus [4].

In the case of `CNCCCN1c2ccccc2CCc2ccccc21` [DESIPRAMINE], the ED50 was 0.8 mg/kg in the experiment with Mus musculus [1], 1.6 mg/kg with Mus musculus [7] and over 10 mg/kg in the experiment with Rattus norvegicus [4].

`CN1CCC2(CC1)CN(c1ccccc1Cl)c1cc(Cl)ccc12.O=C(O)/C=C\C(=O)O`: the ED50 in the experiment with Mus musculus [1] was 2.6 mg/kg; in the experiment on Rattus norvegicus [4], over 10 mg/kg.

For the compound `c1ccc(C2OC3(CCNCC3)c3ccccc32)cc1` (configuration not stated), the ED50 with Mus musculus [1] is 0.5 mg/kg; in the experiment on Mus musculus [7], 1 mg/kg; in the experiment on Rattus norvegicus [4], 1.9 mg/kg.

`CN(C)CCC=C1c2ccccc2CCc2ccccc21` [AMITRIPTYLINE]: the ED50 in the experiment with Mus musculus [8] came out at 8 mg/kg; with Mus musculus [9], 1.5 mg/kg; with Rattus norvegicus [10], 7.1 mg/kg; in the experiment with Mus musculus [11] it was 1.94 mg/kg; with Rattus norvegicus [12], 22.6 mg/kg.

Turning to `Cl.O=[N+]([O-])c1ccccc1N1CC2(CCNCC2)c2ccccc21`, the ED50 entry in the experiment with Mus musculus [13] is “All animals died”; with Rattus norvegicus [4], over 10 mg/kg.

`Br.CN1CCC2(CC1)CN(c1ccccn1)c1ccccc12`: the ED50 with Mus musculus [1] is over 20 mg/kg; with Rattus norvegicus [4] it was over 10 mg/kg.

Regarding `CN1CCC2(CC1)CN(c1ccccc1N)c1ccccc12.Cl`, the ED50 was 4 mg/kg with Mus musculus [1] and over 10 mg/kg with Rattus norvegicus [4].

Consider `CN1CCC2(CC1)CN(c1ccccc1C(F)(F)F)c1cc(Cl)ccc12.O=C(O)/C=C\C(=O)O`, for which the ED50 in the experiment with Mus musculus [1] was over 8 mg/kg; with Rattus norvegicus [4], over 10 mg/kg.

For the compound `Fc1ccc(N2CC3(CCNCC3)c3ccccc32)cc1.O=C(O)/C=C\C(=O)O`, the ED50 in the experiment on Mus musculus [1] was over 20 mg/kg; in the experiment with Mus musculus [3], over 20 mg/kg; in the experiment on Rattus norvegicus [4], over 10 mg/kg.

A word on the IC50: it is the concentration needed to halve the response being measured. A high value points to a need for much substance. On to `Clc1ccccc1N1CC2(CCNCC2)c2ccccc21.O=C(O)/C=C\C(=O)O`, for which the 50% effective dose (ED50) in the experiment with Mus musculus [8] is 1.6 mg/kg; in the experiment on Rattus norvegicus [10], 4.7 mg/kg; in the experiment on Mus musculus [14], 0.37 mg/kg; in the experiment with Rattus norvegicus [12] it was 4.9 mg/kg; with Mus musculus [17] it was 1.2 mg/kg. Besides, the IC50 was 8 µM in the experiment listed under Rattus norvegicus [15], 1.7 µM in the experiment listed under Rattus norvegicus [16], 6.5 µM in the experiment filed under Rattus norvegicus [18] and 160 µM in [19].

`Cl.Cl.Nc1ccccc1N1CC2(CCNCC2)c2ccc(Cl)cc21`: the ED50 is over 20 mg/kg with Mus musculus [1] and over 10 mg/kg in the experiment with Rattus norvegicus [4].

For the compound `CN1CCC2(CC1)CN(c1cccc(C(F)(F)F)c1)c1ccccc12`, the ED50 was over 20 mg/kg in the experiment on Mus musculus [1] and over 10 mg/kg in the experiment with Rattus norvegicus [4].
